In BindingDB's records for patent US20230271964 (AstraZeneca, 2023):
pKi: −log10 of the molar value.

How the values were obtained:
Adenosine receptor A1 = target: T1, Adenosine receptor A1 (Homo sapiens, UniProt P30542); test: Adenosine Receptor Binding Assay
T1 sequence (P30542 whole entry): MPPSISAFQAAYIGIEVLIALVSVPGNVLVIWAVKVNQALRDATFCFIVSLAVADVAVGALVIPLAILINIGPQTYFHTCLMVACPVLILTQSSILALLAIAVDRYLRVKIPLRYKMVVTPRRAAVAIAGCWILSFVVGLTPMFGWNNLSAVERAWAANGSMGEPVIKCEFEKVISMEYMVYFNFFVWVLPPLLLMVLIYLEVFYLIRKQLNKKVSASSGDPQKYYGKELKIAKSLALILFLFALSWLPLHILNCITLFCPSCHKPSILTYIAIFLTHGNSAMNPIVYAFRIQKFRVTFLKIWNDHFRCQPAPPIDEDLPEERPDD
Procedure: (§1) Inhibition binding assays were performed using 0.2 µg of membranes prepared from HEK293 cells infected with BacMam human adenosine A2A receptor or 1.4 µg of membranes prepared from HEK293 cells infected with BacMam human adenosine A1 receptor. Membranes were incubated in 50 mM Tris-HCl (HEK293-hA2A; pH 7.4) or 50 mM Tris-HCl, 100 mM NaCl, 10 mM MgCl2 (CHO-hA1; pH 7.4) in the presence of varying concentrations of test compound and 1 nM [3H]ZM241385 (HEK293-hA2A) or [3H]DPCPX (CHO-hA1) at 25° C. for 1 h. The assay was then terminated by rapid filtration onto GF/B grade Unifilter plates using a TomTec cell harvester, followed by 5 × 0.5 ml washes with ddH2O. […] Bound radioactivity was determined by liquid scintillation counting and inhibition curves were analysed using a four-parameter logistic equation. IC50 values were converted to Ki values with the Cheng-Prusoff equation using a KD value derived from saturation binding studies.

Adenosine receptor A2a = Adenosine receptor A2a (Homo sapiens, UniProt P29274); test: Adenosine Receptor Binding Assay
Chain of Adenosine receptor A2a (P29274 whole entry): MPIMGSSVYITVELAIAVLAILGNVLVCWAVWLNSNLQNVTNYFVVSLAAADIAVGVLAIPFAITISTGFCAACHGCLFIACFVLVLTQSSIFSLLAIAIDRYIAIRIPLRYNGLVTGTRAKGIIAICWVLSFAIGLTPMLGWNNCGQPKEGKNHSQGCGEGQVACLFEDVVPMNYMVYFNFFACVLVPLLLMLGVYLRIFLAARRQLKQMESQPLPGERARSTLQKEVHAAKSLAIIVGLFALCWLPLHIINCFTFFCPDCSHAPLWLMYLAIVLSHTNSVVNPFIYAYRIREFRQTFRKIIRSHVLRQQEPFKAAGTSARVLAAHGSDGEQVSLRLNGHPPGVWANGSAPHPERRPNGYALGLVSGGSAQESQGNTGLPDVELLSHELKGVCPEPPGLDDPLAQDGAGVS
Procedure: as §1

pKi (Adenosine receptor A1): 7.60
pKi (Adenosine receptor A2a): 9.20
SMILES: Cc1cc(-c2c(-c3ccccc3)nc(N)n3c(=O)n(Cc4ncc[nH]4)nc23)cc(C)n1 [US20230271964, Example 1-24]
